Source: patent US20200222474A1, “COMPOSITIONS AND METHODS FOR INCREASING PHYTOCHEMICAL BIOAVAILABLITY AND BIOACTIVITY” (North Carolina State University, priority 2017, published 2020)

Key:
L. acidophilus NCFM [1] = test: Growth of L. acidophilus NCFM on plant glycosides as single carbon source (OD600); type: cell-based, Lactobacillus acidophilus; conditions: verified by production of lactate and metabolite analysis
Method: (§1) For initial growth and gene expression studies, L. acidophilus NCFM was propagated three times in semi-defined medium (SDM) supplemented with either 1% or 0,5% (w/v) of the plant glycoside or carbohydrate (Table 1). For the RNA-seq analysis, cells were harvested by centrifugation (3,220×10 min, 25° C.) in the mid-exponential phase (OD600=0.6-0.8) and stored at −80° C. for subsequent RNA isolation. For the mass spectrometry metabolite analyses, 200 μt samples were taken at 0, 3, 6, 9, 12, and 24 hours of growth; cells were removed by centrifugation; and supernatants were stored at −80° C. for further analysis.
(§2) Phenotypic growth assays were performed using 1% (v/v) overnight cultures of L. acidophilus strains (Table 2) and other Lactobacillus species (Table 3) grown on SDM supplemented with 1% (w/v) glucose to inoculate 200 μL of SDM supplemented with 1% (w/v) of the examined carbohydrate (0.5% in the case of esculin) in 96-well microplate wells (Corning Costar, Corning, N.Y., USA) in duplicate or triplicate wells, respectively. The microplates were sealed with clear adhesive film, incubated at 37° C. in a Fluostar Optima microplate reader (BMG Labtech, Cary, N.C., USA), and the cell optical density (OD600) was monitored for 30 hours.
(§3) The growth of L. acidophilus NCFM was evaluated on twelve chemically diverse, nutritionally relevant and/or therapeutically active PGs 1; Table 1). FIG. 1A provides the structures and common sources of plant glycoside substrates described herein. The compounds that support growth of Lactobacillus acidophilus are in green. RI: β-D-Glcp; R2: Gentiobioside (β-D-Glcp-(1,6)-D-Glcp); R3: Rutinoside (α-L-Rhaf-(1,6)-D-Glcp). The graph in FIG. 1B depicts plant glycoside utilization analyzed by mass spectrometry and the growth as the maximum OD600. Due to the low solubility of polydatin, OD600 cannot be used as a growth metric and utilization of this compound is confirmed by the production of lactate as well as a high utilization level based on the metabolite analysis.

L. acidophilus NCFM [2] = test: Plant glycoside uptake and metabolite analysis of L. acidophilus NCFM culture supernatants by UHPLC-DAD-Q-TOF-MS; type: cell-based, Lactobacillus acidophilus
Method: as §1
Analysis of plant glycoside uptake from L. acidophilus NCFM culture supernatants using mass spectrometry. The supernatants of L. acidophilus NCFM cultures grown on amygdalin, arbutin, esculin or salicin as carbon sources were analyzed during 24 hours by ultra-high performance liquid chromatography-diode array detection-quadruple time of flight mass spectrometry (UHPLC-DAD-Q-TOF-MS). Samples were diluted 1:20 (v/v) with methanol and an injection volume of […] was used. Separation was carried out on an Agilent Poroshell 120 phenyl-hexyl column (2.1×150 mm, 2.7 μm) using the Agilent Infinity 1290 UHPLC system (Agilent Technologies, Santa Clara, Calif., USA) equipped with a UV/vis spectrum diode array detector. Separation was performed at 0.35 mL min-1., 60° C. with a linear gradient consisting of water (A) and acetonitrile (B) both buffered with 20 mM formic acid, starting at 10% B and increased to 100% in 15 min where it was held for 2 min, returned to 10% in 0.1 min and kept for 3 min. MS detection was performed on an Agilent 6550 iFunnel QTOF MS equipped with Agilent Dual Jet Stream electrospray ion source with the drying gas temperature of 160° C. and gas flow of 13 L min^−1, whereas the sheath gas temperature was 300° C. and flow was 16 L min-1. Ionization was conducted in ESI-mode with capillary voltage set to 4000 V and nozzle voltage to 500 V. Mass spectra were recorded as centroid data for m/z 85-1700 in MS mode with an acquisition rate of 10 spectra s^−1. To avoid carry-over, the needle seat was back-flushed for 15 s at 4 mL min-1 with each of: i) isopropanol: 0.2% ammonium hydroxide (w/v) in water (1:1 v/v); ii) acetonitrile with 2% formic acid (w/v); iii) water with 2% formic acid. Data was processed with the Agilent Mass Hunter Qualitative Analysis B.07.00 software package (Agilent Technologies) and molar concentrations were obtained from standard curves of the plant glycosides and their main metabolites. Targeted compound searches were performed using lists of previously identified compounds plus standard chemical modifications.

[3] = Solubility in growth experiments (observation); type: physicochemical; conditions: in growth medium; precluded OD600 nm as growth metric
Method: as §3

NCK2422 (ΔLBA0725) = test: Phenotypic growth analysis of deletion mutant (PTS EIICBA); type: cell-based, Lactobacillus acidophilus
Method: as §2
(§4) Construction of gene deletion mutants. The L. acidophilus NCFM genes LBA0225 and LBA0726, both encoding P-Bgl of glycoside hydrolase family 1 (GH1) enzymes in addition to the LBA0227 and LBA0725 genes encoding an EIIC and an EIICBA components of two PTS systems, respectively, were deleted using the upp-based counterselectable gene replacement system. Briefly, in-frame deletions were constructed by amplifying 650-750 bp of the up- and downstream flanking regions of the deletion targets with two primer pairs (e.g., LBA0225A/LBA0225B and LBA0225C/LBA0225D; Table 4). The resulting purified products were joined by splicing using overlap extension PCR (SOE-PCR63) and amplified to establish the deletion alleles. The SOE-PCR products, that include flanking restriction enzyme sites, were cloned within the BamHI and SacI/EcoRI sites of the pTRK935 integration vector and transformed into E. coli EC101. The resulting recombinant plasmids (pTRK1113-6) were confirmed by DNA sequencing and electroporated into L. acidophilus NCK1910 (Table 2) that contains the pTRK669 helper plasmid, and the recovery of the single- and double-crossover recombinants was performed as previously described. Recombinants carrying the new gene deletion alleles were isolated by colony PCR using primer pairs denoted up/down (e.g., LBA0225up/LBA0225down), which anneal to the flanking regions of the amplicons. Sequence integrity and in-frame deletions were verified by DNA sequencing employing the aforementioned primer pairs and primer denoted mid (e.g., LBA0225mid). The mutations were in-frame deletions of 90-96% of the coding regions.
To establish the functional significance of these two loci, single deletions of each PTS EII and P-Bgl gene, and a double deletion of both P-Bgl genes were constructed using the upp-based counter-selectable gene replacement system (Table 2) and the growth phenotypes of the mutant strains were analyzed (FIG. 3). Phenotypic growth analyses of deletion mutants of EII PTS transporters (FIGS. 3A, 3C, 3E, 3G, and 3I) and phospho-β-glucosidase (FIGS. 3B, 3D, 3F, 3H, and 3J) on the β-glucosides esculin, salicin, amygdalin and the disaccharides gentiobiose and cellobiose. The background Aupp strain is shown as a grey fill graph and the growth of the mutant strains is shown as: PTS EIIC (LBA0227, pink triangle), the phospho-β-glucosidase (LBA0225, light blue triangles), the PTS EIICBA (LBA0725, yellow squares), the second phospho-β-glucosidase (LBA0726, lilac squares) and the double phospho-β-glucosidase mutant (LBA0225/LBA0726, black stars). The color scheme is consistent with that used for the gene loci in FIG. 2.

NCK2424 (ΔLBA0726) = test: Phenotypic growth analysis of deletion mutant (phospho-β-glucosidase); type: cell-based, Lactobacillus acidophilus; conditions: compared with background Δupp strain
Method: as §2
Construction of gene deletion mutants. The L. acidophilus NCFM genes LBA0225 and LBA0726, both encoding P-Bgl of glycoside hydrolase family 1 (GH1) enzymes in addition to the LBA0227 and LBA0725 genes encoding an EIIC and an EIICBA components of two PTS systems, respectively, were deleted using the upp-based counterselectable gene replacement system. Briefly, in-frame deletions were constructed by amplifying 650-750 bp of the up- and downstream flanking regions of the deletion targets with two primer pairs (e.g., LBA0225A/LBA0225B and LBA0225C/LBA0225D; Table 4). The resulting purified products were joined by splicing using overlap extension PCR (SOE-PCR63) and amplified to establish the deletion alleles. The SOE-PCR products, that include flanking restriction enzyme sites, were cloned within the BamHI and SacI/EcoRI sites of the pTRK935 integration vector and transformed into E. coli EC101. […]
(§5) To establish the functional significance of these two loci, single deletions of each PTS EII and P-Bgl gene, and a double deletion of both P-Bgl genes were constructed using the upp-based counter-selectable gene replacement system (Table 2) and the growth phenotypes of the mutant strains were analyzed (FIG. 3). […]

NCK2418 (ΔLBA0227) = test: Phenotypic growth analysis of deletion mutant (PTS EIIC); type: cell-based, Lactobacillus acidophilus; conditions: compared with background Δupp strain
Method: as §2, §4, §5

Compound	growth on compound (OD600 not usable) (L. acidophilus NCFM [1])	aglycone / main metabolite identified in culture supernatant (L. acidophilus NCFM [2]; L. acidophilus NCFM growing on the glycoside, up to 24 h)	Catabolism based on MS (L. acidophilus NCFM [2]; growth concentration 0.5% (w/v), qualitative: depletion of the plant glycoside and/or appearance of its metabolites)	solubility [3]	reduction of growth on inactivation of the EIICBA (LBA0725) (NCK2422 (ΔLBA0725))	growth of the ΔLBA0725 mutant (inactive PTS EIICBA) (NCK2422 (ΔLBA0725); compared with background Δupp strain)	growth of the ΔLBA0726 mutant (P-Bgl) (NCK2424 (ΔLBA0726))	growth of the ΔLBA0227 mutant (inactive EIIC) (NCK2418 (ΔLBA0227))
OC[C@H]1O[C@@H](Oc2cc(O)cc(/C=C/c3ccc(O)cc3)c2)[C@H](O)[C@@H](O)[C@@H]1O [Polydatin]	verified by production of lactate and metabolite analysis	resveratrol	Yes	poor solubility				
gentiobiose [reference compound]					about 50%	moderately reduced	unaffected	abolished
